Assay results taken from the supplement of paper PMC8671470.
± gives the standard deviation of the averaged measurements.

Legend:
Settings in all cases: 72 h
[1] = system: myeloid leukemia patient primary cells Pat.9; experiment: area under dose-response curve (viability, 1 nM-10 uM) (fraction (0-1)); higher = more sensitive
Method: (§1)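 AUC (0–1, higher = more sensitive) of the 5-point dose–response (1 nM–10 µM, 72 h, CellTiter-Glo) in primary AML/CML patient mononuclear cells. 0.030103 is the floor for inactive compounds.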

[2] = system: myeloid leukemia patient primary cells Pat.8; experiment: as above
Method: as §1

[3] = system: myeloid leukemia patient primary cells Pat.3; experiment: as above
Method: as §1

[4] = system: myeloid leukemia patient primary cells Pat.11; experiment: as above
Method: as §1

[5] = system: myeloid leukemia patient primary cells Pat.2; experiment: as above
Method: as §1

[6] = system: myeloid leukemia patient primary cells Pat.4; experiment: as above
Method: as §1

[7] = system: myeloid leukemia patient primary cells Pat.7; experiment: as above
Method: as §1

[8] = system: myeloid leukemia patient primary cells Pat.1; experiment: as above
Method: as §1

[9] = system: myeloid leukemia patient primary cells Pat.6; experiment: as above
Method: as §1

[10] = system: myeloid leukemia patient primary cells Pat.14; experiment: as above
Method: as §1

[11] = system: myeloid leukemia patient primary cells Pat.12; experiment: as above
Method: as §1

[12] = system: myeloid leukemia patient primary cells Pat.15; experiment: as above
Method: as §1

[13] = system: myeloid leukemia patient primary cells Pat.5; experiment: as above
Method: as §1

[14] = system: myeloid leukemia patient primary cells Pat.13; experiment: as above
Method: as §1

[15] = system: myeloid leukemia patient primary cells Pat.10; experiment: as above
Method: as §1

[16] = system: myeloid leukemia patient primary cells Pat.9; experiment: cell viability (% survival relative to DMSO control); higher = less cytotoxic
In short: (§2)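 Where an area under the curve appears, it was computed with the drc and PharmacoGx R packages from log-logistic fits. Those fits used four parameters. The underlying viability data came from CellTiter-Glo after 72 h, normalised to DMSO and 10 μM proteasome-inhibitor wells, with thawed, Ficoll-purified AML or CML patient mononuclear cells at 10,000 cells/well in RPMI 1640 with 10% FBS on 384-well plates pre-printed with 70 compounds at five tenfold concentrations (1–10,000 nM) in duplicate.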

[17] = system: myeloid leukemia patient primary cells Pat.11; experiment: as above
In short: as §2

[18] = system: myeloid leukemia patient primary cells Pat.2; experiment: as above
In short: as §2

[19] = system: myeloid leukemia patient primary cells Pat.1; experiment: as above
In short: as §2

[20] = system: myeloid leukemia patient primary cells Pat.5; experiment: as above
In short: as §2

[21] = system: myeloid leukemia patient primary cells Pat.13; experiment: as above
In short: as §2

[22] = system: HL-60; experiment: cell viability (% survival relative to DMSO control); higher = less cytotoxic
In short: (§3)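 In 384-well plates, the full library was rescreened in duplicate on HL-60 cells in RPMI 1640 with 10% FBS, at 1–10,000 nM in five tenfold concentrations, for 72 h at 37 °C, 5% CO2. Each run also held DMSO or 100 nM of one of three metabolic inhibitors. Viability was measured by CellTiter-Glo and normalised to DMSO wells and to wells with proteasome inhibitor, present at 10 μM. Any area under the curve comes from four-parameter log-logistic fitting with drc and PharmacoGx.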

[23] = system: HL-60; experiment: area under dose-response curve (viability, 1 nM-10 uM) (fraction (0-1)); higher = more sensitive
In short: as §3

O=c1[nH]c(=O)n([C@H]2C[C@H](O)[C@@H](CO)O2)cc1I [Idoxuridine]
Settings	area under dose-response curve
[1]	< 0.0301
[2]	< 0.0301
[3]	< 0.0301
[4]	< 0.0301
[5]	< 0.0301
[6]	< 0.0301
[7]	< 0.0301
[8]	< 0.0301
[9]	< 0.0301
[10]	< 0.0301
[11]	< 0.0301
[12]	< 0.0301
[13]	< 0.0301
[14]	< 0.0301
[15]	< 0.0301

Settings	area under dose-response curve, co-treatment: AZD3965 100 nM	area under dose-response curve, co-treatment: DMSO vehicle	area under dose-response curve, co-treatment: GSK2194069 100 nM	area under dose-response curve, co-treatment: pictilisib 100 nM	cell viability, 1 nM [%]	cell viability, 10 nM [%]	cell viability, 100 nM [%]	cell viability, 1000 nM [%]	cell viability, 10000 nM [%]
[16]	–	–	–	–	34.8	59.9	68.1	35.5	70.3
[17]	–	–	–	–	> 100	95.9	96.4	90.7	> 100
[18]	–	–	–	–	> 100	90	94.9	84.2	98.2
[19]	–	–	–	–	84.3	81.5	95	74.3	95.4
[20]	–	–	–	–	45.5	10.2	87.4	17.2	46.7
[21]	–	–	–	–	91	84.4	83.4	74.8	91.9
[23]	< 0.0301	< 0.0301	< 0.0301	< 0.0301	–	–	–	–	–

cell viability [%], [22]
Settings	0.001 µM	0.01 µM	0.1 µM	1 µM	10 µM
co-treatment: AZD3965 100 nM	94.7 ± 5.6	102 ± 7.4	98.5 ± 1.3	97.9 ± 8.4	102 ± 2.1
co-treatment: DMSO vehicle	99.9 ± 2.4	100 ± 3.8	99.7 ± 3.8	94.9 ± 5	103 ± 3.1
co-treatment: GSK2194069 100 nM	95.3 ± 9.7	100 ± 6.1	101 ± 3	98.6 ± 4	86.4 ± 4.5
co-treatment: pictilisib 100 nM	84.1 ± 16	95.8 ± 0.38	97.3 ± 2.2	93.8 ± 0.58	90 ± 3.7

CCCCCCCCCCCCC/C=C/[C@@H](O)[C@H](CO)N(C)C [N,N-Dimethylsphingosine]
Settings	area under dose-response curve
[1]	0.516
[2]	0.114
[3]	0.384
[4]	0.0868
[5]	0.127
[6]	0.153
[7]	0.335
[8]	0.0643
[9]	0.15
[10]	0.273
[11]	0.0829
[12]	0.113
[13]	0.664
[14]	0.131
[15]	0.468

Settings	area under dose-response curve, co-treatment: AZD3965 100 nM	area under dose-response curve, co-treatment: DMSO vehicle	area under dose-response curve, co-treatment: GSK2194069 100 nM	area under dose-response curve, co-treatment: pictilisib 100 nM	cell viability, 1 nM [%]	cell viability, 10 nM [%]	cell viability, 100 nM [%]	cell viability, 1000 nM [%]	cell viability, 10000 nM [%]
[16]	–	–	–	–	68.4	77.7	25.2	21.6	< 0
[17]	–	–	–	–	94.6	> 100	94.1	93.3	19.4
[18]	–	–	–	–	91.4	96.1	88.2	92.4	3.22
[19]	–	–	–	–	> 100	92.6	79.6	74.3	56.2
[20]	–	–	–	–	75.5	57.6	10.1	2.01	0.265
[21]	–	–	–	–	94.6	86.2	71.2	85.7	0.263
[23]	0.132	0.132	< 0.0301	0.0441	–	–	–	–	–

cell viability [%], [22]
Settings	0.001 µM	0.01 µM	0.1 µM	1 µM	10 µM
co-treatment: AZD3965 100 nM	95.3 ± 2.7	103 ± 7.5	100 ± 2.3	100.26 ± 0.045	-1.76 ± 1.1
co-treatment: DMSO vehicle	98.6 ± 0.98	98.5 ± 4	102 ± 6.8	97.42 ± 0.24	54.1 ± 66
co-treatment: GSK2194069 100 nM	90.2 ± 1.8	98.3 ± 5.2	103 ± 6	97.23 ± 0.41	86.6 ± 7.7
co-treatment: pictilisib 100 nM	87.6 ± 2.9	112 ± 13	106 ± 3.5	96.1 ± 2.2	62.7 ± 10
